Activity calls are given as the source filed them.
How the values were obtained:
HeLa = assay: viability loss in HeLa cells – cell-based, ATP luminescence, cherry-pick samples, cytotoxicity control, dose response (AID 687004); assay type: functional; details: Homo sapiens
[1] = cytotoxicity in HEK293 background cells – cell-based, dry powder, set 2, counter-screen for EBV LMP1 inhibitor project, dose response (AID 624374); assay type: functional
Paired box protein Pax-8 = Paired box protein Pax-8 (Homo sapiens, UniProt Q06710); assay: PAX8 transcriptional activity inhibition in RMG-I – RMG-I cells, luciferase, cherry-pick, dose response (AID 687027); assay type: functional, cell-based;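 further: luciferase reporter driven by Pax8 target thyroperoxidase promoter measured by SteadyGlo luminescence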
Sequence of Paired box protein Pax-8 (Q06710 whole entry): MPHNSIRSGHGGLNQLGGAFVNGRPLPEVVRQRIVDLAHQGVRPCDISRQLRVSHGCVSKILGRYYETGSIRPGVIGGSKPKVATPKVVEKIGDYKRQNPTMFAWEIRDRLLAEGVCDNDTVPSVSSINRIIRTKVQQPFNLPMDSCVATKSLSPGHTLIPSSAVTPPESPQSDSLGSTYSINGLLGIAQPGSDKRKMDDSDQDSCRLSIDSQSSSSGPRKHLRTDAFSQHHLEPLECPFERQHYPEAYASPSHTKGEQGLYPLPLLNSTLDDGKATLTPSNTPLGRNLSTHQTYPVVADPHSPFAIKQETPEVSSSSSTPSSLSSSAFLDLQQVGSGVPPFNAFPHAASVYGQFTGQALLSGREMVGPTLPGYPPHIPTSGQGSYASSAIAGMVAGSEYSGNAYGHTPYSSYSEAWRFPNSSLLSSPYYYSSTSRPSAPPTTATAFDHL

[2] = CMV-driven luciferase expression suppression in HEK293 – cell-based, luminescence, dry powder, counter-screen for Pax8 inhibitor project, dose response (AID 743020); assay type: functional
[3] = OVCAR8 cell viability loss – plate reader, dry powder samples, PAX8 project, dose response (AID 743197); assay type: functional, cell-based; details: OVCAR-8
[4] = biological target: Kappa-type opioid receptor (Homo sapiens, UniProt P41145); assay: kappa opioid receptor antagonism potency – cell-based, fluorescence, dose response, late-stage follow-up (AID 652032); assay type: functional
Sequence of Kappa-type opioid receptor (P41145 whole entry): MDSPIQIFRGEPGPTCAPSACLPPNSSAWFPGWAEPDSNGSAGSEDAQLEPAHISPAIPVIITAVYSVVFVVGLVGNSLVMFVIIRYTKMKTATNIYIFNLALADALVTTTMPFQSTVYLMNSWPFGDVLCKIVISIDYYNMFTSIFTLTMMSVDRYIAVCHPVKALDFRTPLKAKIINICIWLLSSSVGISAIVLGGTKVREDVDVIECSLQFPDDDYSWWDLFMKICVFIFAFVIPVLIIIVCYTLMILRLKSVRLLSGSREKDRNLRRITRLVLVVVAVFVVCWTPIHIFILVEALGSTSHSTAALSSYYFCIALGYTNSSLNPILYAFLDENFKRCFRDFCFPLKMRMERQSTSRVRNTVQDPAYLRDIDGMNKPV

Beta-lactamase [5] = biological target: Beta-lactamase (Salmonella choleraesuis (strain SC-B67), UniProt Q5J463); assay: Epi-absorbance-based counterscreen for selective VIM-2 inhibitors: dose response biochemical high throughput screening assay to identify inhibitors of TEM-1 serine-beta-lactamase.
Sequence of Beta-lactamase (Salmonella choleraesuis (strain SC-B67), UniProt Q5J463) (Q5J463 whole entry): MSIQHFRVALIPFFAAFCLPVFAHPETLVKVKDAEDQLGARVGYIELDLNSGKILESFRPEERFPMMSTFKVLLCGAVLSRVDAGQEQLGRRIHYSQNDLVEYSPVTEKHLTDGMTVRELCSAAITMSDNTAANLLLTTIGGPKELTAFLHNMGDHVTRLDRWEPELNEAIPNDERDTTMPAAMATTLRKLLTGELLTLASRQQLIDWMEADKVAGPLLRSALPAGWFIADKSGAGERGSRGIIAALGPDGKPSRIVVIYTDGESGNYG

Beta-lactamase [6] = biological target: T1, Beta-lactamase (Pseudomonas aeruginosa, UniProt Q79MP6); assay: inhibition of IMP-1 beta-lactamase activity – biochemical, epi-absorbance, selectivity assay for VIM-2 inhibitor project, dose response (AID 1920)
T1 sequence (Q79MP6 whole entry): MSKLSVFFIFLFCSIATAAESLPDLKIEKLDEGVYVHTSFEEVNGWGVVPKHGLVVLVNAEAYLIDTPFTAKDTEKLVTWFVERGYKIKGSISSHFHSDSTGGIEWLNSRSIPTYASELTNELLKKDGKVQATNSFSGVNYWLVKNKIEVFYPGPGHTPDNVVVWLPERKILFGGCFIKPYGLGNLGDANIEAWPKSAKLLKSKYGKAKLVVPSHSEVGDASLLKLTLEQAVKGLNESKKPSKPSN

Beta Lactamase [7] = biological target: T2, Beta Lactamase (Pseudomonas aeruginosa, UniProt Q932Y6); assay: concentration-dependent VIM-2 enzyme inhibition – biochemical, epi-absorbance readout, selective inhibitors, dose response (AID 1919)
T2 sequence (Q932Y6 whole entry): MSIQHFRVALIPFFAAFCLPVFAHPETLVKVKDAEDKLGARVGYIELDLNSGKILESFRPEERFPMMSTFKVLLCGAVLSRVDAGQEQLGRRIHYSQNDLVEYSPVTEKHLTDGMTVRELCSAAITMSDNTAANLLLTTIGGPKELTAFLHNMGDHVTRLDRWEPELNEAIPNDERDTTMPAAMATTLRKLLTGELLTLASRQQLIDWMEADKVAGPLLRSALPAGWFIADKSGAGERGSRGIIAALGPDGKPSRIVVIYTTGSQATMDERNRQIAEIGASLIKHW

Beta-lactamase [8] = biological target: T1, Beta-lactamase; assay: […] counterscreen for selective VIM-2 inhibitors: dose response biochemical high throughput screening assay to identify inhibitors of IMP-1 metallo-beta-lactamase.
Beta Lactamase [9] = biological target: T2, Beta Lactamase; assay: VIM-2 CCF2 hydrolysis inhibition, assay artifact filter – biochemical, FRET readout, CCF2 substrate, artefact control for selective VIM-2 inhibitor project, dose response (AID 1926)
Genome polyprotein = Genome polyprotein (dengue virus type 2, UniProt P29990); assay: flavivirus cap methylation enzyme inhibition – biochemical, confirmation dose response, primary screen (AID 588689); assay type: functional
Sequence of Genome polyprotein (P29990 2492-3391 limits assumed): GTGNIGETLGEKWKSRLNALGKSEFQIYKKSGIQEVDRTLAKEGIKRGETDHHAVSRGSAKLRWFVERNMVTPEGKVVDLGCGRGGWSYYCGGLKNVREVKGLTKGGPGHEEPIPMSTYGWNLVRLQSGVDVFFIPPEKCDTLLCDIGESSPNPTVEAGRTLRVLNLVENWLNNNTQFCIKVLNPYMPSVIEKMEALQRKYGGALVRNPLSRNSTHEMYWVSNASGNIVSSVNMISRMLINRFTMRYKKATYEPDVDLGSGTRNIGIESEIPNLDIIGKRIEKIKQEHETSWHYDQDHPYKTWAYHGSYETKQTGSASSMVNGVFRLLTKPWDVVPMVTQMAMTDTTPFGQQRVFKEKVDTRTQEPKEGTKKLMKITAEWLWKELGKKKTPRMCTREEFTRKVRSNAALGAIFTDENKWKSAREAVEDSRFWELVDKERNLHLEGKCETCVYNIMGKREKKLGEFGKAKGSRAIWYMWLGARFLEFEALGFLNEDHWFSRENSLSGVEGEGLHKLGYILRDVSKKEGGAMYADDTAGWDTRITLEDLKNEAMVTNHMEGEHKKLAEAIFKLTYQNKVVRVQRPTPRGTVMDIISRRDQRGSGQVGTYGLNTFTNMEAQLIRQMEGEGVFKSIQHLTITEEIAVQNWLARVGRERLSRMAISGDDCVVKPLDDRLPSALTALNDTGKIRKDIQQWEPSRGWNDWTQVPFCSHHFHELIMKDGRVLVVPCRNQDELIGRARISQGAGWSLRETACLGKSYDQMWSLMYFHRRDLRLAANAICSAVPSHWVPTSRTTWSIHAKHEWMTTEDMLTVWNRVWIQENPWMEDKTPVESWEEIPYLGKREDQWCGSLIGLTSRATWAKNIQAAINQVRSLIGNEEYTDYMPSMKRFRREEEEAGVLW

[10] = biological target: T3, Carboxy-terminal domain RNA polymerase II polypeptide A small phosphatase 1 (Homo sapiens, UniProt Q9GZU7); assay: CTDSP1 inhibitors, concentration-response, biochemical, absorbance readout, ultra-high-throughput screen actives (AID 540297); assay type: functional
T3 sequence (Q9GZU7 whole entry): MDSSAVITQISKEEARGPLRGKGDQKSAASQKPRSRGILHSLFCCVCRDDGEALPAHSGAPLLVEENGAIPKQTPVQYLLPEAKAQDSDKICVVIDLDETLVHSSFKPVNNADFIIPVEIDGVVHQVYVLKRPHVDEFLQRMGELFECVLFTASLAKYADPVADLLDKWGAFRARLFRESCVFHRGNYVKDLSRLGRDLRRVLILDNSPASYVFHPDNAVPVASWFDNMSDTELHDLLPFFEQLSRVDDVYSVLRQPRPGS

**Q.** With `COc1ccc(C2=Nc3ccccc3NC(=O)C2N(C(=O)c2cc3ccccc3[nH]2)c2ccccc2)cc1` (stereo not drawn) as the molecule, how does the AC50 (HeLa) read?
**A.** > 52 µM (inactive)

**Q.** For `Cc1noc(C)c1S(=O)(=O)Nc1ccc2c(c1)C(=O)N([C@H](C)CO)C[C@H](C)[C@H](CN(C)Cc1ccc(C(F)(F)F)cc1)OCCCC[C@@H](C)O2`, which AbsAC35 [1] is on record?
**A.** 79.09 µM

**Q.** With `COc1ccc(S(=O)(=O)Nc2ccc3c(c2)CC(=O)N([C@H](C)CO)C[C@H](C)[C@@H](CN(C)Cc2ccc(C(F)(F)F)cc2)O3)cc1` as the molecule, how does the AC50 (Paired box protein Pax-8) read?
**A.** 19.3 µM (active)

**Q.** And the AC50 [2]?
**A.** 49.3 µM (active)

**Q.** What about the AC50 [3] of the same molecule?
**A.** > 70 µM (inactive)

**Q.** With `COC(=O)c1cc(Br)cnc1N1CCC(N)CC1` as the molecule, how does the IC50 [4] read?
**A.** 21.8 µM (inactive)

**Q.** Which IC50 (Beta-lactamase [5]) does the source give for `Oc1c(Br)cc(/C=N/n2c(S)nnc2-c2ccccc2)cc1Br` here?
**A.** > 59.6 µM (inactive)

**Q.** What about the IC50 (Beta-lactamase [6]) of the same molecule?
**A.** > 59.6 µM (inactive)

**Q.** What about the IC50 (Beta Lactamase [7]) of the same molecule?
**A.** 19.3 µM (inactive)

**Q.** What about the IC50 (Beta-lactamase [8]) of the same molecule?
**A.** > 19.9 µM (inactive)

**Q.** What about the IC50 (Beta Lactamase [9]) of the same molecule?
**A.** 6.1 µM (active)

**Q.** What about the IC50 (Genome polyprotein) of the same molecule?
**A.** 27.5 µM (active)

**Q.** What about the IC50 [10] of the same molecule?
**A.** 1.54 µM (active)

Source: ChEMBL document CHEMBL1201862, “PubChem BioAssay data set” (2004)
